Results: PubChem BioAssay (NCI)
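Each compound was tested at five concentrations against cells in 96-well plates for 48 hours. The concentration for full growth arrest is given as TGI.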

Key:
Assay in all cases: DTP human tumour cell line panel, 48 h
786-0 renal = test system: 786-0 renal
A549 NSCLC = test system: A549 NSCLC
ACHN renal = test system: ACHN renal
BT-549 breast = test system: BT-549 breast
CAKI-1 renal = test system: CAKI-1 renal
CCRF-CEM leukemia = test system: CCRF-CEM leukemia
COLO 205 colon = test system: COLO 205 colon
DU-145 prostate = test system: DU-145 prostate
EKVX NSCLC = test system: EKVX NSCLC
HCC-2998 colon = test system: HCC-2998 colon
HCT-116 colon = test system: HCT-116 colon
HCT-15 colon = test system: HCT-15 colon
HL-60(TB) leukemia = test system: HL-60(TB) leukemia
HOP-62 NSCLC = test system: HOP-62 NSCLC
HS 578T breast = test system: HS 578T breast
HT29 colon = test system: HT29 colon
IGROV1 ovarian = test system: IGROV1 ovarian
K-562 leukemia = test system: K-562 leukemia
KM12 colon = test system: KM12 colon
LOX IMVI melanoma = test system: LOX IMVI melanoma
M14 melanoma = test system: M14 melanoma
MALME-3M melanoma = test system: MALME-3M melanoma
MCF7 breast = test system: MCF7 breast
MDA-MB-231 breast = test system: MDA-MB-231 breast
MDA-MB-435 = test system: MDA-MB-435
MOLT-4 leukemia = test system: MOLT-4 leukemia
NCI-H226 lung = test system: NCI-H226 lung
NCI-H23 lung = test system: NCI-H23 lung
NCI-H460 lung = test system: NCI-H460 lung
NCI-H522 lung = test system: NCI-H522 lung
NCI/ADR-RES ovarian = test system: NCI/ADR-RES ovarian
OVCAR-3 ovarian = test system: OVCAR-3 ovarian
OVCAR-4 ovarian = test system: OVCAR-4 ovarian
OVCAR-5 ovarian = test system: OVCAR-5 ovarian
OVCAR-8 ovarian = test system: OVCAR-8 ovarian
PC-3 prostate = test system: PC-3 prostate
RPMI-8226 leukemia = test system: RPMI-8226 leukemia
RXF 393 renal = test system: RXF 393 renal
SF-268 CNS = test system: SF-268 CNS
SF-295 CNS = test system: SF-295 CNS
SF-539 CNS = test system: SF-539 CNS
SK-MEL-2 melanoma = test system: SK-MEL-2 melanoma
SK-MEL-28 melanoma = test system: SK-MEL-28 melanoma
SK-OV-3 ovarian = test system: SK-OV-3 ovarian
SN12C renal = test system: SN12C renal
SNB-19 CNS = test system: SNB-19 CNS
SNB-75 CNS = test system: SNB-75 CNS
SR leukemia = test system: SR leukemia
SW-620 colon = test system: SW-620 colon
T-47D breast = test system: T-47D breast
TK-10 renal = test system: TK-10 renal
U251 CNS = test system: U251 CNS
UACC-257 melanoma = test system: UACC-257 melanoma
UACC-62 melanoma = test system: UACC-62 melanoma
UO-31 renal = test system: UO-31 renal

For `O=C(C(Cl)Cl)N(O)c1ccccc1OCc1ccccc1`, the TGI (786-0 renal) was greater than 100 µM, the TGI (A549 NSCLC) was greater than 100 µM and the TGI (ACHN renal) was greater than 100 µM. The TGI (BT-549 breast) was 1.43 µM, the TGI (CAKI-1 renal) was greater than 100 µM and the TGI (CCRF-CEM leukemia) was 39 µM. It also gave a TGI (COLO 205 colon) of 68 µM, a TGI (DU-145 prostate) of 45.5 µM and a TGI (EKVX NSCLC) of 48.8 µM. It also gave a TGI (HCC-2998 colon) of 6.89 µM, a TGI (HCT-116 colon) greater than 100 µM and a TGI (HCT-15 colon) greater than 100 µM. The TGI (HL-60(TB) leukemia) was greater than 100 µM, the TGI (HOP-62 NSCLC) was greater than 100 µM and the TGI (HS 578T breast) was 61.7 µM. It also gave a TGI (HT29 colon) greater than 100 µM, a TGI (IGROV1 ovarian) greater than 100 µM and a TGI (K-562 leukemia) greater than 100 µM. For the same molecule, the TGI (KM12 colon) was greater than 100 µM, the TGI (LOX IMVI melanoma) was greater than 100 µM and the TGI (M14 melanoma) was greater than 100 µM. It also gave a TGI (MALME-3M melanoma) greater than 100 µM, a TGI (MCF7 breast) greater than 100 µM and a TGI (MDA-MB-231 breast) greater than 100 µM. For the same molecule, the TGI (MDA-MB-435) was greater than 100 µM, the TGI (MOLT-4 leukemia) was greater than 100 µM and the TGI (NCI-H226 lung) was greater than 100 µM. The TGI (NCI-H23 lung) was greater than 100 µM, the TGI (NCI-H460 lung) was greater than 100 µM and the TGI (NCI-H522 lung) was 82.4 µM. The TGI (NCI/ADR-RES ovarian) was greater than 100 µM, the TGI (OVCAR-3 ovarian) was greater than 100 µM and the TGI (OVCAR-4 ovarian) was 78.9 µM. It also gave a TGI (OVCAR-5 ovarian) greater than 100 µM, a TGI (OVCAR-8 ovarian) of 63.5 µM and a TGI (PC-3 prostate) greater than 100 µM. It also gave a TGI (RPMI-8226 leukemia) of 69.2 µM, a TGI (RXF 393 renal) greater than 100 µM and a TGI (SF-268 CNS) greater than 100 µM. For the same molecule, the TGI (SF-295 CNS) was greater than 100 µM, the TGI (SF-539 CNS) was greater than 100 µM and the TGI (SK-MEL-2 melanoma) was greater than 100 µM. For the same molecule, the TGI (SK-MEL-28 melanoma) was greater than 100 µM, the TGI (SK-OV-3 ovarian) was greater than 100 µM and the TGI (SN12C renal) was greater than 100 µM. The TGI (SNB-19 CNS) was greater than 100 µM, the TGI (SNB-75 CNS) was greater than 100 µM and the TGI (SR leukemia) was greater than 100 µM. It also gave a TGI (SW-620 colon) of 68.1 µM, a TGI (T-47D breast) of 51.8 µM and a TGI (TK-10 renal) greater than 100 µM. For the same molecule, the TGI (U251 CNS) was greater than 100 µM, the TGI (UACC-257 melanoma) was 63.9 µM and the TGI (UACC-62 melanoma) was 92.2 µM. For the same molecule, the TGI (UO-31 renal) was greater than 100 µM.
